Among the data in US20250034173A1, “PYRIDO[4,3-D]PYRIMIDINE COMPOUNDS” (PFIZER INC., priority 2023, published 2025) are Kd and IC50 values, retold here.

One test concerns the target KRAS G12D (Homo sapiens (Human), UniProt P01116, G12D). As to the kind of experiment: SPR binding affinity and kinetics, GTPγS-loaded KRAS G12D. Conditions: GTPγS loaded protein, geomean. The text has this: (§1) No additional regeneration was used.
(§2) Compound dissociation was monitored for at least 3600 seconds. […] No additional regeneration was used.
(§3) The adequateness of the fit was judged by c2 values and the randomness of residue distribution.
A general note: Surface plasmon resonance follows binding to a sensor surface in real time, without labels.

The subject of test [1] is SW620 (colorectal cancer cell line). As to the kind of experiment: KRAS Cell Titer Glo (CTG) cell proliferation assay, SW620. The class given is cell-based. Particulars: Homo sapiens, SW-620, 168 h; SW620 cells, 7-day CTG, geomean IC50. The text has this: (§4) The CellTiter-Glo® (CTG) Luminescent Cell Viability Assay is a homogeneous method of determining the number of viable cells in culture based on quantitation of the ATP present, an indicator of metabolically active cells. The CTG is designed for use with multi-well formats, making it ideal for automated high-throughput screening (HTS), cell proliferation and cytotoxicity assays. The homogeneous assay procedure involves adding the single reagent (CellTiter-Glo® Reagent) directly to cells cultured in serum-supplemented medium. Cell washing, removal of medium and multiple pipetting steps are not required. The system detects as few as 15 cells per well in a 384-well format in 10 minutes after adding reagent and mixing.
(§5) Cells are grown in humidified 5% CO2 incubator at 37° C. using the culture conditions outlined below. All cell culture media reagents were purchased from Gibco. Cell lines purchased from ATCC: H358 (non-small cell lung cancer cell line), SW620 (colorectal cancer cell line), PANC08.13 (RPM11640+10% FBS+10 units/mL Insulin, pancreatic cancer cell line). Test and control compounds are dispensed as nanoliter drops according to desired final concentrations in 0.1% DMSO using Echo Acoustic Dispenser onto 384 assay plates (Corning, Cat #3764) prior to cell seeding. Cells were seeded in 40 μL volume per well at the following cell densities (cells per well): H358 (300), SW620 (750), PANC 08.13 (600). Cells are incubated in the presence of compound for 7-days. Viability is determined on Day 7 using CellTiter-Glo® (CTG) Luminescent Cell Viability Assay (Promega). CTG is added to a […] per well and incubated at room temperature for 15 minutes before luminescence is captured using an EnVision Reader with LUM384 US protocol. Data is analyzed using Activity Base to determine compound response and will be represented either as a percent effect (PCTEFF) or percent control (PCTOCTL) as described: Zero percent effect control (ZPE) (Negative control)—100% DMSO. Hundred percent effect (HPE) (Positive control)—1 uM Trametinib (GSK1120212, MEK inhibitor) (4 nl of 10 mM and 36 nl of DMSO per well). The following equations/nomenclature are used (% Effect; PCTEFF) and (% of Control; PCTOCTL): PCTEFF: 100*(Raw_Data_Value−HPE/ZPE−HPE), PCTOCTL: 100*Raw_Data_Value/User_Defined_Array), where the User_Defined_Array is either summarized HPE or ZPE.
(§6) Cells with “nd” indicate compound not tested in that particular assay at time of writing. It is to be understood that the geomean IC50 data may change slightly over time with increasing repeat data (ie: increasing n #).

The target in another test is KRAS G12V (Homo sapiens (Human), UniProt P01116, G12V). As to the kind of experiment: SPR binding affinity and kinetics, GTPγS-loaded KRAS G12V. Conditions: GTPγS loaded protein, geomean.
Description: as §1, §2, §3

In test [2] the test system is PANC08.13 (pancreatic cancer cell line). As to the kind of experiment: KRAS Cell Titer Glo (CTG) cell proliferation assay, PANC08.13. The class given is cell-based. Conditions: Homo sapiens, PANC-08-13, 168 h; PANC08.13 cells, 7-day CTG, geomean IC50.
Description: as §4, §5, §6
For orientation: Cellular ATP, detected with luciferase, serves as a proxy for viable cell number.

The subject of test [3] is H358 (non-small cell lung cancer cell line). As to the kind of experiment: KRAS Cell Titer Glo (CTG) cell proliferation assay, H358. The class given is cell-based. Conditions: Homo sapiens, NCI-H358, 168 h; H358 cells, 7-day CTG, geomean IC50.
Description: as §4, §5, §6

In a further test the target is KRAS Wild Type (Homo sapiens (Human), UniProt P01116). As to the kind of experiment: SPR binding affinity and kinetics, GTPγS-loaded KRAS Wild Type. Conditions: GTPγS loaded protein, geomean.
Description: as §1, §2, §3

The next test addresses KRAS G12C (Homo sapiens (Human), UniProt P01116, G12C). As to the kind of experiment: SPR binding affinity and kinetics, GTPγS-loaded KRAS G12C. Particulars: GTPγS loaded protein, geomean.
Description: as §1, §2, §3

As usually defined, the Kd is the equilibrium constant for the complex coming apart. Higher therefore signals a looser complex. The term IC50 denotes the point on the concentration scale where inhibition reaches its midpoint.

KRAS G12V, sequence (P01116 other isoform, or with tags, fused parts or gaps G12V): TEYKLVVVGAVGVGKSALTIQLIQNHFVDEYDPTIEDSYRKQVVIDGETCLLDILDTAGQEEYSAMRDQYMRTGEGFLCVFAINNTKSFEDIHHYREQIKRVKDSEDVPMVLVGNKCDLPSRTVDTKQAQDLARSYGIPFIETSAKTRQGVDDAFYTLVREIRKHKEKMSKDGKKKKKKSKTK
KRAS G12C, sequence (P01116 other isoform, or with tags, fused parts or gaps G12C): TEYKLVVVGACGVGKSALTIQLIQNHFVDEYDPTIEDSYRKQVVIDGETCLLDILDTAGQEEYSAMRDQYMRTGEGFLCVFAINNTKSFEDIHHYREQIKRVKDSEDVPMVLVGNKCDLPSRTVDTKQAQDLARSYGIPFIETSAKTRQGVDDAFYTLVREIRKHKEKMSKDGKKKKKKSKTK
KRAS Wild Type, sequence (P01116 other isoform, or with tags, fused parts or gaps): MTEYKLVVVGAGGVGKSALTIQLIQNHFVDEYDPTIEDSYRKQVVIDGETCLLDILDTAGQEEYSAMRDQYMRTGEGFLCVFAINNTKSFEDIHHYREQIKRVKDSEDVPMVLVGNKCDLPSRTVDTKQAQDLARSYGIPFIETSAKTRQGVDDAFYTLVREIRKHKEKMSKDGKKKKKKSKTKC
KRAS G12D, sequence (P01116 other isoform, or with tags, fused parts or gaps G12D): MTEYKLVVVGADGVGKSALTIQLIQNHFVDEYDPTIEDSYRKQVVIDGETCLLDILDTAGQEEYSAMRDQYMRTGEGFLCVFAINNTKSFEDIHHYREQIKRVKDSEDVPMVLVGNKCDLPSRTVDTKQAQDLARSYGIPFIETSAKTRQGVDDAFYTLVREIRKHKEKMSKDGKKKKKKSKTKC

For `C=C1CN2CC[C@@H](O)[C@@]2(COc2nc3c4c(nc(-c5c(C6CC6)c(Cl)cc6[nH]ncc56)c(F)c4n2)OC[C@@H]2COCCCN32)C1` (relative stereo) [Example 45, (1R,7aS*)-7a-({[(8aS)-5-(6-chloro-5-cyclopropyl-1H-indazol-4-yl)-4-fluoro-8a,9,12,13-tetrahydro-8H,11H-7,10-dioxa-1,3,6,13a-tetraazanaphtho[1,8-ab]heptalen-2-yl]oxy}methyl)-6-methylidenehexahydro-1H-pyrrolizin-1-ol], the Kd at KRAS G12D was determined as 1 nM; on KRAS G12V it was 2 nM; at KRAS Wild Type, 3 nM; at KRAS G12C it was 3 nM. Besides, the half-inhibitory concentration (IC50) in test [1] came to 32 nM; in test [2], 20 nM; in test [3], 19 nM.
For the compound `COC/C=C1/CN2CCC[C@@]2(COc2nc3c4c(nc(-c5c(C6CC6)c(Cl)cc6[nH]ncc56)c(F)c4n2)OC[C@@H]2COCCCN32)C1` (relative stereo) [Example 48, (8aS)-5-(6-chloro-5-cyclopropyl-1H-indazol-4-yl)-4-fluoro-2-{[(2E,7aS*)-2-(2-methoxyethylidene)tetrahydro-1H-pyrrolizin-7a(5H)-yl]methoxy}-8a,9,12,13-tetrahydro-8H,11H-7,10-dioxa-1,3,6,13a-tetraazanaphtho[1,8-ab]heptalene], the Kd on KRAS G12D turned out to be 35 nM; on KRAS G12V it was 41 nM; on KRAS Wild Type it was 65 nM; on KRAS G12C it was 72 nM.
For the compound `COC/C=C1/CN2CCC[C@@]2(COc2nc3c4c(nc(-c5c(C6CC6)c(Cl)cc6[nH]ncc56)c(F)c4n2)OC[C@@H]2COCCCN32)C1` (relative stereo) [Example 49, (8aS)-5-(6-chloro-5-cyclopropyl-1H-indazol-4-yl)-4-fluoro-2-{[(2E,7aR*)-2-(2-methoxyethylidene)tetrahydro-1H-pyrrolizin-7a(5H)-yl]methoxy}-8a,9,12,13-tetrahydro-8H,11H-7,10-dioxa-1,3,6,13a-tetraazanaphtho[1,8-ab]heptalene], the Kd on KRAS G12D worked out at 41 nM; at KRAS G12V, 58 nM; on KRAS Wild Type, 63 nM; on KRAS G12C, 73 nM.
The corresponding values for `COC/C=C1\CN2CCC[C@@]2(COc2nc3c4c(nc(-c5c6c(cc7[nH]ncc57)CCC[C@H]6OC)c(F)c4n2)OC[C@@H]2COCCCN32)C1` (relative stereo) [Example 59, (8aS)-4-fluoro-2-{[(2Z,7aS)-2-(2-methoxyethylidenetetrahydro-1H-pyrrolizin-7a(5H)-yl]methoxy}-5-[(5R*)-5-methoxy-5,6,7,8-tetrahydro-1H-benzo[f]indazol-4-yl]-8a,9,12,13-tetrahydro-8H,11H-7,10-dioxa-1,3,6,13a-tetraazanaphtho[1,8-ab]heptalene] are over 1000 nM, over 1000 nM, over 1000 nM and over 1000 nM.
Take `C=C1CN2CCC[C@@]2(COc2nc3c4c(nc(-c5c([C@@H]6C[C@@H]6C)c(Cl)cc6[nH]ncc56)c(F)c4n2)OC[C@@H]2COCCCN32)C1` (single isomer, unassigned) [Example 30, (8aS)-5-{6-chloro-5-[(1R*,2S*)-2-methylcyclopropyl]-1H-indazol-4-yl}-4-fluoro-2-{[(7aS)-2-methylidenetetrahydro-1H-pyrrolizin-7a(5H)-yl]methoxy}-8a,9,12,13-tetrahydro-8H,11H-7,10-dioxa-1,3,6,13a-tetraazanaphtho[1,8-ab]heptalene]: the Kd on KRAS G12D came to 2 nM; at KRAS G12V, 4 nM; at KRAS Wild Type, 4 nM; on KRAS G12C it was 3 nM. Besides, the 50% inhibitory concentration (IC50) was found to be 102 nM in test [1], 4 nM in test [2] and 51 nM in test [3].
Consider `C=C1CN2CCC[C@@]2(COc2nc3c4c(nc(-c5c([C@H]6C[C@H]6C)c(Cl)cc6[nH]ncc56)c(F)c4n2)OC[C@@H]2COCCCN32)C1` (single isomer, unassigned) [Example 31, (8aS)-5-{6-chloro-5-[(1S*,2R*)-2-methylcyclopropyl]-1H-indazol-4-yl}-4-fluoro-2-{[(7aS)-2-methylidenetetrahydro-1H-pyrrolizin-7a(5H)-yl]methoxy}-8a,9,12,13-tetrahydro-8H,11H-7,10-dioxa-1,3,6,13a-tetraazanaphtho[1,8-ab]heptalene], for which the Kd at KRAS G12D is 6 nM; on KRAS G12V it was 5 nM; on KRAS Wild Type, 10 nM; on KRAS G12C, 7 nM. The IC50 amounted to 115 nM in test [1], 11 nM in test [2] and 54 nM in test [3].
Take `C=C1CN2CCC[C@@]2(COc2nc3c4c(nc(-c5c([C@@H]6C[C@H]6C)c(Cl)cc6[nH]ncc56)c(F)c4n2)OC[C@@H]2COCCCN32)C1` (single isomer, unassigned) [Example 51, (8aS)-5-{6-chloro-5-[(1R*,2R*)-2-methylcyclopropyl]-1H-indazol-4-yl}-4-fluoro-2-{[(7aS)-2-methylidenetetrahydro-1H-pyrrolizin-7a(5H)-yl]methoxy}-8a,9,12,13-tetrahydro-8H,11H-7,10-dioxa-1,3,6,13a-tetraazanaphtho[1,8-ab]heptalene]: the equilibrium dissociation constant (Kd) at KRAS G12D was 6 nM; on KRAS G12V, 7 nM; at KRAS Wild Type, 12 nM; on KRAS G12C, 8 nM. Also, the 50% inhibitory concentration (IC50) was found to be 40 nM in test [1], 10 nM in test [2] and 27 nM in test [3].
Consider `C=C1CN2CCC[C@@]2(COc2nc3c4c(nc(-c5c6c(cc7[nH]ncc57)CCC[C@H]6OC)c(F)c4n2)OC[C@@H]2COCCCN32)C1` (single isomer, unassigned) [Example 56, (8aS)-4-fluoro-5-[(5R*)-5-methoxy-5,6,7,8-tetrahydro-1H-benzo[f]indazol-4-yl]-2-{[(7aS)-2-methylidenetetrahydro-1H-pyrrolizin-7a(5H)-yl]methoxy}-8a,9,12,13-tetrahydro-8H,11H-7,10-dioxa-1,3,6,13a-tetraazanaphtho[1,8-ab]heptalene], for which the Kd is 34 nM on KRAS G12D, 23 nM at KRAS G12V, 23 nM at KRAS Wild Type and 10 nM on KRAS G12C. The IC50 was determined as 63 nM in test [1], 135 nM in test [2] and 172 nM in test [3].
With `C=C1CN2CCC[C@@]2(COc2nc3c4c(nc(-c5c6c(cc7[nH]ncc57)CCC[C@H]6OC)c(F)c4n2)OC[C@@H]2COCCCN32)C1` (single isomer, unassigned) [Example 57, (8aS)-4-fluoro-5-[(5R*)-5-methoxy-5,6,7,8-tetrahydro-1H-benzo[f]indazol-4-yl]-2-{[(7aS)-2-methylidenetetrahydro-1H-pyrrolizin-7a(5H)-yl]methoxy}-8a,9,12,13-tetrahydro-8H,11H-7,10-dioxa-1,3,6,13a-tetraazanaphtho[1,8-ab]heptalene], the dissociation constant Kd at KRAS G12D, on KRAS G12V, at KRAS Wild Type and at KRAS G12C was over 1000 nM each time.
